The structures appear in SMILES notation.

This experiment deals with T1, SMYD3 (Homo sapiens, UniProt Q9H7B4).
T1 construct: Expressed full-length human His-tagged SMYD3 protein was purified from cell paste; His6 (cleaved yes); SUMO (with TEV site) (cleaved yes); made in house; host or cells: E. coli BL21 codonplus RIL
T1 sequence (Q9H7B4 1-428): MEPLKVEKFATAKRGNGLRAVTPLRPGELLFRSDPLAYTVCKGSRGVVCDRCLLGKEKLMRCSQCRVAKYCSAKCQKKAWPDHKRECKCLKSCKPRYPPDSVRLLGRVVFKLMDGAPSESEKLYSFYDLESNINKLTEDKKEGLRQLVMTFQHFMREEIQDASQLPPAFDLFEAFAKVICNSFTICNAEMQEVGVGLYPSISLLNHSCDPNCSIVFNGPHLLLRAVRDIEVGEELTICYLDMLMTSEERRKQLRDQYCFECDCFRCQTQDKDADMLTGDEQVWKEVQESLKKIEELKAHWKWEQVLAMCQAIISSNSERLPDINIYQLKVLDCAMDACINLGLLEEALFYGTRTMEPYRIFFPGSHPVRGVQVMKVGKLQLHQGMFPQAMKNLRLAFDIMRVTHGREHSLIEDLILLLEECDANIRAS
Put plainly: SMYD3 Biochemical Assay (SMYD3 enzyme assay on MEKK2 protein substrate, 3H-SAM, scintillation proximity assay). Conditions: read-out: SMYD3 Biochem IC50 (uM)*. The source says:
S-adenosylmethionine (SAM), S-adenosylhomocysteine (SAH), Tris, Tween20, dimethylsulfoxide (DMSO), bovine skin gelatin (BSG), and Tris(2-carboxyethyl)phosphine hydrochloride solution (TCEP) were purchased from Sigma-Aldrich at the highest level of purity possible. ^3H-SAM was purchase from American Radiolabeled Chemicals with a specific activity of 80 Ci/mmol.
This protein was expressed in High Five insect cells and purified to >85% purity. Protein identity was confirmed by MS/MS analysis after proteolytic digestion. The protein sequence used was:
Full-length human SMYD3 isoform 1 (BAB86333) was inserted into a modified pET21b plasmid containing a His6 tag and TEV and SUMO cleavage sites.
Transformed cells were grown and selected on LB agar with 100 μg/mL ampicillin and 17 μg/mL chloramphenicol at 37° C. overnight. A single clone was used to inoculate 200 mL of LB medium with 100 μg/mL ampicillin and 17 μg/mL chloramphenicol and incubated at 37° C. on an orbital shaker at 180 rpm. […] Once OD600 reached about 0.4, IPTG was added to a final concentration of 0.1 mM and the cells were grown overnight at 15° C. and 160 rpm. Cells were harvested by centrifugation at 8000 rpm, for 4 minutes at 4° C. and stored at −80° C. for purification. […]

For orientation: IC50 means the concentration at which inhibition is half-maximal. As for `NCCC(=O)N(CCN)[C@H]1CC[C@H](NC(=O)c2cc(C3CC3)on2)CC1` [compound 35, N-((1r,4r)-4-(3-amino-N-(2-aminoethyl)pro-panamido)cyclo-hexyl)-5-cyclo-propylisoxazole-3-carboxamide], the IC50 is 0.883 µM.

The values are drawn from US20200123142A1, “Substituted Cyclohexylamine Compounds” (EPIZYME, INC., priority 2018, published 2020).
